Reference: patent US6787315B2, “Methods for identifying ligand binding sites in a biomolecule” (priority 2001, dated 2004)

Tests used:
Parameters in all cases: species or system E. coli
[1] = test system: 16S RNA (27-mer RNA model of the prokaryotic A-site 16S RNA); experiment: ESI-FT-ICR MS ligand binding to unmodified 27-mer 16S RNA
Protocol: (§1) The following examples illustrate preferred embodiments of the present invention using mass spectrometry. Experiments were performed using a 7.0 Tesla Fourier transform ion cyclotron resonance (FT-ICR) mass spectrometer with an electrospray ionization source operating in the negative mode. A −3000 V difference was employed between the spray tip and the inlet capillary to generate the electrospray. Samples were introduced at a flow rate of 1.5 uL/min using a Harvard syringe pump and a 50 uL glass syringe. The desolvation of the electrospray droplets was aided by a flow of countercurrent gas at 1 L/min. Ions were accumulated for 1.0 sec in an intermediate hexapole ion storage region at 1.0×10^−5 mbar. Following transfer to the FT-ICR analysis cell, the image current was measured over a mass range of 500-4000 m/z. Typically, a total of 32 transients containing 512 kbytes were summed prior to Fourier transformation. The m/z values were calibrated on the signal from the [M-5H^+]^5− charge state of the free RNA at 1726.509.
An aqueous solution containing 100 mM ammonium acetate buffer (pH 7.0), 33% isopropyl alcohol, gentamicin (2 μM, present in three forms), 16S RNA (2.5 μM) and a modified 16S RNA (2.5 μM) was prepared. Modified 27-mer 16S RNA contained a 5-iodouridine residue at position 13 in the UUCG tetraloop (See FIG. 1). The resulting mass spectra (see FIG. 3, upper spectrum) contained identifiable peaks corresponding to free 16S RNA (m/z 1726.5), free modified 16S RNA(5IUtetra; m/z 1750.7), 16S complexed with the three forms of gentamicin present in the sample (16S+genta; m/z 1816-1825), and 16S(5IUtetra) complexed with the three forms of gentamicin (5IUtetra+genta; m/z 1841-1849). The peaks were integrated and ion abundances determined. Fractions of 16S+genta and 5IUtetra+genta complexes were determined to be 70.4% and 68.2±1% for the free 16S RNA and 5IUtetraRNA, respectively.
An aqueous solution containing 100 mM ammonium acetate buffer (pH 7.0), 33% isopropyl alcohol, gentamicin (2 μM), 16S RNA (2.5 μM) and a modified 16S RNA (2.5 μM) was prepared. Modified 27-mer 16S RNA contained a 5-iodouridine residue at position U1406 at the position of a U-U mismatch base pair (E. coli numbering system). The resulting mass spectra (see FIG. 3, lower spectrum) contained identifiable peaks corresponding to free 16S RNA (m/z 1726.5), free modified 16S RNA(5IU1406; m/z 1750.7), 16S complexed with the three forms of gentamicin present in the sample (16S+genta; m/z 1816-1825), and 16S(5IU1406) complexed with the three forms of gentamicin (5IU1406+genta; m/z 1841-1849). The peaks were integrated and ion abundances determined. Fractions of 16S+genta and 5IU1406+genta complexes were determined to be 66.8% and 28.1±1% for the free 16S RNA and 5IU1406 RNA, respectively.
An aqueous solution containing 50 mM ammonium acetate buffer (pH 7.0), 33% isopropyl alcohol, ribostamycin (2.5 μM), 16S RNA (2.5 μM) and a modified 16S RNA (2.5 μM) was prepared. […] The resulting mass spectra (see FIG. 4) contained identifiable peaks corresponding to free 16S RNA (m/z 1726.5), free modified 16S RNA(5IU 1495; m/z 1821.4), 16S complexed with ribostamycin present in the sample (16S+ribost; m/z 1818.6), and 16S(5IU1495) complexed with ribostamycin (5IU1495+ribost; m/z 1912.3). The peaks were integrated and ion abundances determined. Fractions of 16S+ribost and 5IU1495+ribost complexes were determined to be 67.6% and 29.9±1% for the free 16S RNA and 5IU1495 RNA, respectively.
An aqueous solution containing 100 mM ammonium acetate buffer (pH 7.0), 33% isopropyl alcohol, gentamicin (1 μM), 16S RNA (5 μM) and a modified 16S RNA (5.5 μM) was prepared. Modified 27-mer 16S RNA contained a 3′-phosphorothioate residue at position G1491 at the position of a G-C base pair (E. coli numbering system) and a C12O6 PEG mass tag off the 5′-hydroxyl group. Mass spectra were obtained using the standard protocol described above. […]

[2] = test system: modified 16S RNA (5IU1495; 5-iodouridine at position U1495, PEG-6 chain at 5′-hydroxyl); experiment: ESI-FT-ICR MS ligand binding to 27-mer 16S RNA modified at U1495; conditions: Example 3: ribostamycin 2.5 μM
Protocol: as §1, with “The m/z values were calibrated on the signal from the [M-5H^+]^5− charge state of the free RNA at 1726.509.” left out
An aqueous solution containing 50 mM ammonium acetate buffer (pH 7.0), 33% isopropyl alcohol, ribostamycin (2.5 μM), 16S RNA (2.5 μM) and a modified 16S RNA (2.5 μM) was prepared. […] The peaks were integrated and ion abundances determined. Fractions of 16S+ribost and 5IU1495+ribost complexes were determined to be 67.6% and 29.9±1% for the free 16S RNA and 5IU1495 RNA, respectively.

[3] = test system: modified 16S RNA (5IUtetra; 5-iodouridine at position 13 in the UUCG tetraloop); experiment: ESI-FT-ICR MS ligand binding to 27-mer 16S RNA modified at the tetraloop
Protocol: as §1, with “The m/z values were calibrated on the signal from the [M-5H^+]^5− charge state of the free RNA at 1726.509.” left out
(§2) An aqueous solution containing 100 mM ammonium acetate buffer (pH 7.0), 33% isopropyl alcohol, gentamicin (2 μM, present in three forms), 16S RNA (2.5 μM) and a modified 16S RNA (2.5 μM) was prepared. […] The peaks were integrated and ion abundances determined. Fractions of 16S+genta and 5IUtetra+genta complexes were determined to be 70.4% and 68.2±1% for the free 16S RNA and 5IUtetraRNA, respectively.

[4] = test system: modified 16S RNA (5IU1406; 5-iodouridine at position U1406); experiment: ESI-FT-ICR MS ligand binding to 27-mer 16S RNA modified at U1406; conditions: Example 2: gentamicin 2 μM
Protocol: as §1
as §2, with “μM),” for “μM, present in three forms),”, “5IU1406+genta” for “5IUtetra+genta”, “66.8%” for “70.4%”, “28.1±1%” for “68.2±1%”, “5IU1406 RNA,” for “5IUtetraRNA,”

[5] = Example 1: gentamicin 2 μM (three forms), 16S RNA 2.5 μM with 5IUtetra RNA 2.5 μM, 100 mM ammonium acetate pH 7.0, 33% isopropyl alcohol

NC[C@H]1O[C@H](O[C@H]2[C@H](O[C@@H]3O[C@H](CO)[C@@H](O)[C@H]3O)[C@@H](O)[C@H](N)C[C@@H]2N)[C@H](N)[C@@H](O)[C@@H]1O [ribostamycin]
Fraction of 16S+ribost complex ([1]; Example 3: ribostamycin 2.5 μM, 16S RNA 2.5 μM with 5IU1495 RNA 2.5 μM, 50 mM ammonium acetate pH 7.0, 33% isopropyl alcohol): 67.6% | Fraction of 16S+ribost complex ([1]; Example 5: ribostamycin 1 μM, 16S RNA 5 μM with 5′-PS-G1491 RNA 5.5 uM, 100 mM ammonium acetate pH 7.0, 33% isopropyl alcohol): 0.105% | Fraction of 16S+ribost complex ([1]; Example 7: ribostamycin 1 μM, 16S RNA 5 μM with 5′-PS-A1492 RNA 5.5 μM, 100 mM ammonium acetate pH 7.0, 33% isopropyl alcohol): 0.101% | Amount of 5IU1495+ribost as % of the amount of 16S+ribost [2]: 44% | Fraction of 5IU1495+ribost complex ([2]; 16S RNA 2.5 μM with 5IU1495 RNA 2.5 μM, 50 mM ammonium acetate pH 7.0, 33% isopropyl alcohol): 29.9±1%

gentamicin
Fraction of 16S+genta complex [1, 5]: 70.4% | Fraction of 16S+genta complex ([1]; Example 2: gentamicin 2 μM, 16S RNA 2.5 μM with 5IU1406 RNA 2.5 μM, 100 mM ammonium acetate pH 7.0, 33% isopropyl alcohol): 66.8% | Fraction of 16S+genta complex ([1]; Example 4: gentamicin 1 μM (lowest mass form integrated), 16S RNA 5 μM with 5′-PS-G1491 RNA 5.5 μM, 100 mM ammonium acetate pH 7.0, 33% isopropyl alcohol): 0.127% | Fraction of 16S+genta complex ([1]; Example 6: gentamicin 1 μM (lowest mass form integrated), 16S RNA 5 μM with 5′-PS-A1492 RNA 5.5 μM, 100 mM ammonium acetate pH 7.0, 33% isopropyl alcohol): 0.121% | Effect of 5-iodouridine residue in the tetraloop on the abundance of the gentamicin-RNA complex ([3]; Example 1: 5IUtetra versus 16S RNA): no effect | Fraction of 5IUtetra+genta complex [3, 5]: 68.2±1% | Amount of 5IU1406+genta as % of the amount of 16S+genta [4]: 42% | Fraction of 5IU1406+genta complex ([4]; 16S RNA 2.5 μM with 5IU1406 RNA 2.5 μM, 100 mM ammonium acetate pH 7.0, 33% isopropyl alcohol): 28.1±1%
